Earlier results on 37 substances are cited in US20090285840A1, “METHODS FOR TREATING PATHOLOGICAL NEOVASCULARIZATION” (New York Society for the Ruptured and Crippled Maintaining …, priority 2008, published 2009).

The data set deals with human ADAM9 mRNA. Set-up: concentration or dose not given beside the values. The following applies: percentage inhibition data reported in US 2004/0092466, Example 15; target SEQ ID NO 94; cited from earlier work.
For the substance “23 (CCTCTTCATCCTTTGCAGTT; listed as DNA, chemistry not given here) [compound 23]”, the “% INHIB” value is given as 84%.
“24 (GTTTCCATTGGTCCAAATCT; listed as DNA, chemistry not given here) [compound 24]”: the “% INHIB” value is 77%.
With “25 (CAAGATTATGACCCAATTCA; listed as DNA, chemistry not given here) [compound 25]”, the “% INHIB” value is on record as 69%.
“26 (GAATATTAAGAAGGCAGTTT; listed as DNA, chemistry not given here) [compound 26]”: the “% INHIB” value was 27%.
As for “27 (CTGCTTTATTATAGCCATGA; listed as DNA, chemistry not given here) [compound 27]”, the “% INHIB” value is 85%.
As for “28 (ATGACTGAATAAGACTTATT; listed as DNA, chemistry not given here) [compound 28]”, the “% INHIB” value is 68%.
On to “29 (TACATTAATGATAACTAAGG; listed as DNA, chemistry not given here) [compound 29]”, for which the “% INHIB” value is given as 68%.
For the substance “30 (AAGATTTTATAATTGCTCCT; listed as DNA, chemistry not given here) [compound 30]”, the “% INHIB” value is recorded as 71%.
In the case of “31 (CGATAAATGATGTGCTCAAA; listed as DNA, chemistry not given here) [compound 31]”, the “% INHIB” value is 36%.
For the substance “32 (CAGTGATTTGTCCAAACACA; listed as DNA, chemistry not given here) [compound 32]”, the “% INHIB” value is reported as 30%.
Turning to “33 (ATTCATTCCAAGATTATGAC; listed as DNA, chemistry not given here) [compound 33]”, the “% INHIB” value is 75%.
“34 (TTAATAGCAAGCTTTGAAAG; listed as DNA, chemistry not given here) [compound 34]”: the “% INHIB” value is given as 68%.
In the case of “35 (GGGTCTGTGGCAAGACAGCT; listed as DNA, chemistry not given here) [compound 35]”, the “% INHIB” value is listed as 65%.
Consider “36 (TCTTTGCTCCACAGGAACAA; listed as DNA, chemistry not given here) [compound 36]”, for which the “% INHIB” value is 77%.
In the case of “37 (CAATGGATGAATTATGAACT; listed as DNA, chemistry not given here) [compound 37]”, the “% INHIB” value is on record as 62%.
Take “38 (TCCGTATCCTTTAGTCTCAC; listed as DNA, chemistry not given here) [compound 38]”: the “% INHIB” value is 80%.
For “39 (TTCCTTCTTTCTCCAGCCTA; listed as DNA, chemistry not given here) [compound 39]”, the “% INHIB” value was 81%.
Consider “40 (GTGAGGGAACTATATAAAGG; listed as DNA, chemistry not given here) [compound 40]”, for which the “% INHIB” value is on record as 66%.
For “41 (AGGAATTAAGTTTCCCTGAG; listed as DNA, chemistry not given here) [compound 41]”, the “% INHIB” value is on record as 74%.
On to “42 (AAAATTTTACGATCCATACC; listed as DNA, chemistry not given here) [compound 42]”, for which the “% INHIB” value is listed as 72%.
With “43 (CTGGAACATCTGATCCTAGC; listed as DNA, chemistry not given here) [compound 43]”, the “% INHIB” value is recorded as 77%.
In the case of “44 (CAAATGTCTCCACAGTGATT; listed as DNA, chemistry not given here) [compound 44]”, the “% INHIB” value is listed as 79%.
With “45 (GCTATTGTGAACGAATGTCA; listed as DNA, chemistry not given here) [compound 45]”, the “% INHIB” value is reported as 86%.
As to “46 (CAAGATTCTAGAGTATGATG; listed as DNA, chemistry not given here) [compound 46]”, the “% INHIB” value is recorded as 85%.
Consider “47 (ATCATGTCATACCTTTCCTT; listed as DNA, chemistry not given here) [compound 47]”, for which the “% INHIB” value was 81%.
Take “48 (GGGAGGCTCTTCCTCTTCAT; listed as DNA, chemistry not given here) [compound 48]”: the “% INHIB” value is reported as 55%.
As for “49 (ACTGAAGCTTTCCACACAAA; listed as DNA, chemistry not given here) [compound 49]”, the “% INHIB” value was 52%.
As to “50 (TCCCACAAATGCCATTCCTG; listed as DNA, chemistry not given here) [compound 50]”, the “% INHIB” value was 78%.
In the case of “51 (AGAAAACCATTTCTTCCTTC; listed as DNA, chemistry not given here) [compound 51]”, the “% INHIB” value is listed as 75%.
Take “52 (ATTATTGGCAGCTGATTAGT; listed as DNA, chemistry not given here) [compound 52]”: the “% INHIB” value was 79%.
As for “53 (GCACCACATTTTGTGCCTTC; listed as DNA, chemistry not given here) [compound 53]”, the “% INHIB” value was 74%.
On to “54 (CTGATTAGTCAGTTTTCACA; listed as DNA, chemistry not given here) [compound 54]”, for which the “% INHIB” value was 85%.
For “55 (TCAATGCAGTATTCATTTCA; listed as DNA, chemistry not given here) [compound 55]”, the “% INHIB” value was 49%.
Regarding “56 (AAGAAGACCAGAAGTCCGTC; listed as DNA, chemistry not given here) [compound 56]”, the “% INHIB” value was 74%.
Take “57 (ATTCCTTTGGAGTACCACAG; listed as DNA, chemistry not given here) [compound 57]”: the “% INHIB” value was 81%.
In the case of “58 (GGTATCTCTTGTACATTCTC; listed as DNA, chemistry not given here) [compound 58]”, the “% INHIB” value is reported as 18%.
“59 (GGGAACTGCTGAGGTTGCTT; listed as DNA, chemistry not given here) [compound 59]”: the “% INHIB” value is on record as 46%.
